Laboratory results published in US11542280B2, “Substituted pyrimidinium compounds and derivatives for combating animal pests” (BASF SE, priority 2017, dated 2023).

Assays:
Type in all cases: in vivo
Dichromothrips corbetti = experiment: Orchid thrips floral-immersion test; settings: adult thrips, 72 hours after treatment, read-out: mortality in comparison with untreated controls
Description: (§1) General conditions: If not otherwise specified, the test solutions are prepared as follows:
(§2) The active compound is dissolved at the desired concentration in a mixture of 1:1 (vol:vol) distilled water: acetone. The test solution is prepared at the day of use.
(§3) Test solutions are prepared in general at different concentrations (wt/vol).
Dichromothrips corbetti adults used for bioassay are obtained from a colony maintained continuously under laboratory conditions. For testing purposes, the test compound is diluted in a 1:1 mixture of acetone:water (vol:vol), plus 0.01% vol/vol Alkamuls® EL 620 surfactant.
Thrips potency of each compound is evaluated by using a floral-immersion technique. Plastic petri dishes are used as test arenas. All petals of individual, intact orchid flowers are dipped into treatment solution and allowed to dry. Treated flowers are placed into individual petri dishes along with about 20 adult thrips. The petri dishes v then covered with lids. All test arenas are held under continuous light and a temperature of about 28° C. for duration of the assay. After 3 days, the numbers of live thrips are counted on each flower, and along inner walls of each petri dish. The percent mortality is recorded 72 hours after treatment.

Nephotettix virescens = experiment: Rice green leafhopper spray test on rice seedlings; settings: adults on sprayed rice seedlings, after 72 hours, read-out: mortality in comparison with untreated controls
Description: as §1, §2, §3
(§4) Rice seedlings are cleaned and washed 24 hours before spraying. The active compounds are formulated in 50:50 acetone:water (vol:vol), and 0.1% vol/vol surfactant (EL 620) is added. Potted rice seedlings are sprayed with 5 ml test solution, air dried, placed in cages and inoculated with 10 adults. Treated rice plants are kept at about 28-29° C. and relative humidity of about 50-60%. Percent mortality is recorded after 72 hours.

Nilaparvata lugens = experiment: Rice brown plant hopper spray test on rice seedlings; settings: adults on sprayed rice seedlings, after 72 hours, read-out: mortality in comparison with untreated controls
Description: as §1, §2, §3
as §4, with “(vol:vol)” for “(vol:vol),”

Measured: mortality at 500 ppm

Cn1c2[n+](c([O-])c(-c3ccccc3)c1=O)C(CC#N)CS2 (stereo not drawn) [Example C1, 3-(cyanomethyl)-8-methyl-7-oxo-6-phenyl-2,3-dihydrothiazolo[3,2-a]pyrimidin-4-ium-5-olate]
> 75%: all assays above
